From US9180164B2, “Compounds and methods of modulating angiogenesis” (THE CLEVELAND CLINIC FOUNDATION, priority 2011, dated 2015)

Columns and labels:
[1] = tested on: HUVECs (Human Umbilical vascular endothelial cells); test: Tube formation assay on Matrigel with inhibitory peptide; assay type: cell-based; details: 8 h
Method: The effect of αvβ3/VEGFR2 complex inhibiting peptides in accordance with the present invention on angiogenic function was assessed by tube formation assay on the basement membrane matrix preparation. […] Cells were washed twice with sterile PBS and seeded on Matrigel-coated plates in combination of presence/absence of VEGF and inhibitory peptide. Cells were further incubated at 37° C. for 8 h.

VEGFR-2 = target: T1, VEGFR-2 (Mus musculus, UniProt P35918); test: VEGFR-2 phosphorylation time course in mouse lung endothelial cells; assay type: cell-based; details: 20 ng/ml VEGF
T1 construct: endogenous in cells; host or cells: primary mouse lung endothelial cells (WT and DiYF mice)
Method: Serum starved wild type and DiYF endothelial cells were also treated with 20 ng/ml VEGF for 0-60 mins. Cell lysates were analyzed by Western blot using anti-integrin β3 [pY^747], anti-integrin [pY^759], anti-p-VEGFR-2, anti-VEGFR-2, anti-p-ERK1/2, anti-ERK1/2, anti-p-Akt, anti-Akt, anti-p-P38MAPK and anti-MAPK antibody. The wild type and DiYF endothelial cells were lysed and equal proteins from total cell lysates were subjected SDS-PAGS and analyzed by western blot using anti-VEGFR-2 and anti-CD-31 antibody.

αvβ3 integrin [2] = target: T2, αvβ3 integrin (Mus musculus, UniProt O54890+P43406); test: Fibrinogen binding assay (FACS); assay type: cell-based; details: WT EC; 20 ng/ml VEGF or 1 mM MnCl2
T2 construct: endogenous in cells; host or cells: primary mouse lung endothelial cells
T2 sequence (O54890 26-787): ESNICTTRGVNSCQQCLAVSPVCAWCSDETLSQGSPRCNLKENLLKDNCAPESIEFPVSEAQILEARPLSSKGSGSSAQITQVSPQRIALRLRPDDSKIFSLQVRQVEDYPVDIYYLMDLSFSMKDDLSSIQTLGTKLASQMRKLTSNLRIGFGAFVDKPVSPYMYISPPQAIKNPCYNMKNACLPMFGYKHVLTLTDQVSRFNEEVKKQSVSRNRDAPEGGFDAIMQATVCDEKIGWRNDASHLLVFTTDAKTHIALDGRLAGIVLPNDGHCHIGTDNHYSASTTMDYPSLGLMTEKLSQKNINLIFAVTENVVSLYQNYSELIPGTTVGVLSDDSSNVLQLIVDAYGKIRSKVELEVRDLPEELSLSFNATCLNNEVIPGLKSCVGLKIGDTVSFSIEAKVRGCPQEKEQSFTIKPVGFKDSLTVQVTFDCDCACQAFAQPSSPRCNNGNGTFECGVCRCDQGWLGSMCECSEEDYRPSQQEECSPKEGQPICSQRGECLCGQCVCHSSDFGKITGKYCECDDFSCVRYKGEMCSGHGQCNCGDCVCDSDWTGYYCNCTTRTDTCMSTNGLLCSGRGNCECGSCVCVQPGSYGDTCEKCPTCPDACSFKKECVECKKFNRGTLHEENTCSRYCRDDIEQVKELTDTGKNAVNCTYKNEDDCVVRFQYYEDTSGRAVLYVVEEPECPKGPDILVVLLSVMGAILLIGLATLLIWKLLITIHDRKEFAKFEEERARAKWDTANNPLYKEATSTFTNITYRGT
T2 sequence (P43406 31-885 limits assumed): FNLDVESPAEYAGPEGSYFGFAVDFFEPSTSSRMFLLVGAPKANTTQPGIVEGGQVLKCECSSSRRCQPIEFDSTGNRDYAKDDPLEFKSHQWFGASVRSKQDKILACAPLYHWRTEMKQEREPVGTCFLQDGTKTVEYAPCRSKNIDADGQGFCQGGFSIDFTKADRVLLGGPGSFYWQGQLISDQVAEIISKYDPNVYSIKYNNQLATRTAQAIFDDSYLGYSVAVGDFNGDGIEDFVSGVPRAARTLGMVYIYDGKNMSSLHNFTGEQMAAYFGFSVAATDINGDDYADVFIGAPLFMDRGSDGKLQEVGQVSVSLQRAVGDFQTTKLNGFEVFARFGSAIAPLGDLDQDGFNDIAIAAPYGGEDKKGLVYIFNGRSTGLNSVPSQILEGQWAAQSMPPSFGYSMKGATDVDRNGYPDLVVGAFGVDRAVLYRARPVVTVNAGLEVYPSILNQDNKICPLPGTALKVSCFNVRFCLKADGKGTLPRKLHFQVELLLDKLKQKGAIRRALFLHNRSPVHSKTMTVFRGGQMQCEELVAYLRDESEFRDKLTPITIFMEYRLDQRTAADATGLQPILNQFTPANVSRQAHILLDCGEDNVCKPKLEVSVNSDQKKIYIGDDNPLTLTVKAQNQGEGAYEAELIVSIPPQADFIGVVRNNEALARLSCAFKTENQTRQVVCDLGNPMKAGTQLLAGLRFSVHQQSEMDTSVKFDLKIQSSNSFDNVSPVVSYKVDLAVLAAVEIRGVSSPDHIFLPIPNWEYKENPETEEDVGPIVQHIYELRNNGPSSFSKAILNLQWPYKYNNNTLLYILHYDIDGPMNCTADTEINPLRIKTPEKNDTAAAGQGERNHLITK
T2 sequence (P43406 887-1044 limits assumed): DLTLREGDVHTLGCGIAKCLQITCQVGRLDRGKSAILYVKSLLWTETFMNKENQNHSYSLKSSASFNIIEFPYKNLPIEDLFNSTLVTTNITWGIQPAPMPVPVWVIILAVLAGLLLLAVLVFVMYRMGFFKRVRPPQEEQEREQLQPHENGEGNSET
Method: (§1) To assess fibrinogen binding, semiconfluent wild type and DiYF mouse lung endothelial cells were serum starved for 4 h and further induced with 20 ng/ml VEGF-165, 20 ng/ml b-FGF or 1 mm MnC12. Fluorescein isothiocyanate (FITC)-labeled fibrinogen was added at a final concentration of 200 nM for 45 min. […] Fluorescence-activated cell sorting (FACS) was performed using a FACS Calibur (Becton Dickinson, San Jose, Calif.) and data were analyzed using CellQuest software program.

αvβ3 integrin [3] = test: Fibrinogen binding assay (FACS); assay type: cell-based, mouse; details: DiYF EC; 20 ng/ml VEGF or 1 mM MnCl2
Method: as §1

αvβ3 integrin [4] = target: T2, αvβ3 integrin; test: WOW-1 binding assay, mouse lung endothelial cells; assay type: cell-based; details: WT EC; 20 ng/ml VEGF or 1 mM MnCl2
Method: (§2) Wild type and DiYF mouse lung endothelial cells were serum starved for 4 h and further stimulated with 20 ng/ml VEGF-165, 20 ng/ml b-FGF or 1 mm MnC12 separately. WoW-1 Fab was added at a final concentration of […], followed by addition of Fluorescein isothiocyanate (FITC) conjugated goat anti-mouse IgG at 10 μg/ml. After 30 min cells were fixed with 3.7% formaldehyde/PBS for 15 min, washed twice with 1×PBS and FACS was performed using a FACS Calibur (Becton Dickinson, San Jose, Calif.) instrument and data were analyzed using CellQuest software program.

αvβ3 integrin [5] = test: WOW-1 binding assay, mouse lung endothelial cells; assay type: cell-based; details: DiYF EC; 20 ng/ml VEGF or 1 mM MnCl2
Method: as §2

T1 sequence (P35918 20-1345): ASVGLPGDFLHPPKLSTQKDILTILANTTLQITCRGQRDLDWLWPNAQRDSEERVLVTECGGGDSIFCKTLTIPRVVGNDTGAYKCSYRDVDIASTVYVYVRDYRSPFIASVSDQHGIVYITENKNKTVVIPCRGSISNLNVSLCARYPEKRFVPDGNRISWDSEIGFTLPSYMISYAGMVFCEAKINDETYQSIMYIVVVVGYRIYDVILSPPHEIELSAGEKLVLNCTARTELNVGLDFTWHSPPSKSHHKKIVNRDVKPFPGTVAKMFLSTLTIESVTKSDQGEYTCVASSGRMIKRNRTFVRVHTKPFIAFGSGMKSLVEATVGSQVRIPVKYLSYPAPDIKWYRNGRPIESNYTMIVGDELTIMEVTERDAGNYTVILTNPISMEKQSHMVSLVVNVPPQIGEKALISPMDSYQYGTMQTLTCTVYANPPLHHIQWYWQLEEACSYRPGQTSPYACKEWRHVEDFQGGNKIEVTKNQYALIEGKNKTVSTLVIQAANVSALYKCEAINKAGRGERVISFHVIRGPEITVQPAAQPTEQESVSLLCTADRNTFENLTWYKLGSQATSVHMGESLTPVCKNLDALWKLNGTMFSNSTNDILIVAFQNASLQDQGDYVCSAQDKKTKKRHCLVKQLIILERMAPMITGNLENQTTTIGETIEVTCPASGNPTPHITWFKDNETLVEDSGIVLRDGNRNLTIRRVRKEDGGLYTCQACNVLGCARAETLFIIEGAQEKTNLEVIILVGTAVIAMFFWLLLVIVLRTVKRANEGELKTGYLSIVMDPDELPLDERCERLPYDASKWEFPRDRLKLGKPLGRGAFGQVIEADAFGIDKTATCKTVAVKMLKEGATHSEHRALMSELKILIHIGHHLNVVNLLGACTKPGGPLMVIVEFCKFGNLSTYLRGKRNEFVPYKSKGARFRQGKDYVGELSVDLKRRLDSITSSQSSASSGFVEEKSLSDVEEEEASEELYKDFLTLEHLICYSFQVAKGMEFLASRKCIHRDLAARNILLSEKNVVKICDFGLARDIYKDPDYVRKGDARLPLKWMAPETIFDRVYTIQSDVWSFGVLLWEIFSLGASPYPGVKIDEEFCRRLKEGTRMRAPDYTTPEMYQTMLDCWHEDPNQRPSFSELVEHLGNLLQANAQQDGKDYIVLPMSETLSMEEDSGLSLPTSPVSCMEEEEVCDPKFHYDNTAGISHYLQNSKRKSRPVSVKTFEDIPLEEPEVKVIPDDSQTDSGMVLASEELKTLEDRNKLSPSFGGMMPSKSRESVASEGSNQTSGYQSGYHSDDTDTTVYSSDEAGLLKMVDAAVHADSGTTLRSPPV

maximum increase in VEGFR-2 phosphorylation over control (VEGFR-2; DiYF EC): 2.5 fold
maximum increase in VEGFR-2 phosphorylation over control (VEGFR-2; WT EC): 6 fold
increase of fibrinogen binding (αvβ3 integrin [2]): at least 6 fold
increase of fibrinogen binding (αvβ3 integrin [3]): 3 fold
increase in WOW-1 binding (αvβ3 integrin [4]): 9 fold
Substance: VEGF
endothelial cell tube formation induced (length of tubes) [1]: at least 450 μm/mm^2
increase in WOW-1 binding (αvβ3 integrin [5]): 3.5 fold
